Measurements as given in ChEMBL document CHEMBL4619777, “A New Class of Dengue and West Nile Virus Protease Inhibitors with Submicromolar Activity in Reporter Gene DENV-2 Protease and Viral Replication Assays” (J Med Chem, 2020).
pEC50, pIC50, pKi: −log10 of the molar value. Calls of active or inactive are those of the source.

Tests used:
[1] = target: Genome polyprotein (dengue virus type 2) (UniProt P29990); assay: Inhibition of Dengue virus serotype 2 NS2B-NS3 protease expressed in Escherichia coli BL21 lambda (DE3) cells at 50 uM using Abz-Nle-Lys-Arg-Arg-Ser-3-(NO2)Tyr as substrate preincubated for 15 mins followed by substrate addition and measured for 15 mins by FRET assay relative to control
Trypsin = Trypsin (Homo sapiens, UniProt P07477+P07478+P35030); assay: Inhibition of trypsin (unknown origin) at 50 uM using Boc-Val-Pro-Arg-AMC as substrate preincubated for 15 mins followed by substrate addition and measured for 15 mins by fluorimetric assay relative to control; format: protein assay; settings: 0.25 h, 50 µM
Genome polyprotein [2] = target: T1, Genome polyprotein (dengue virus type 2, UniProt P29990); assay: Inhibition of Dengue virus serotype 2 NS2B-NS3 protease transfected in human HeLa cells measured after 24 hrs by Renilla-luciferase reporter gene assay; format: cell-based
[3] = Drug metabolism in pH 7.4 phosphate buffered saline assessed as racemization incubated for 96 hrs at 37 degC RP-HPLC analysis; format: physicochemical; settings: buffer, pH 7.4, 96 h
Huh-7 = assay: Cytotoxicity against human HuH7 cells assessed as reduction in cell viability at 12 uM measured after 48 hrs by celltiter-blue assay; format: cell-based; settings: huh-7, 48 h
[4] = Permeability of the compound assessed as drug level in donor plate at 200 uM measured after 5 hrs at pH 7.4 by PAMPA; format: ADME; settings: pH 7.4, 5 h
[5] = Permeability of the compound assessed as mass retention at 200 uM measured after 5 hrs at pH 7.4 by PAMPA; format: ADME; settings: pH 7.4, 5 h
Genome polyprotein [6] = target: T1, Genome polyprotein; assay: Inhibition of Dengue virus serotype 2 NS2B-NS3 protease expressed in Escherichia coli BL21 lambda (DE3) cells using Abz-Nle-Lys-Arg-Arg-Ser-3-(NO2)Tyr as substrate preincubated for 15 mins followed by substrate addition and measured for 15 mins by FRET assay
[7] = Permeability of the compound assessed as drug level in acceptor plate at 200 uM measured after 5 hrs at pH 7.4 by PAMPA; format: ADME; settings: pH 7.4, 5 h
[8] = Drug metabolism in pH13 sodium hydroxide solution assessed as racemization incubated for 96 hrs at 37 degC RP-HPLC analysis; format: physicochemical; settings: pH 13, 96 h
Prothrombin = Prothrombin (Homo sapiens, UniProt P00734); assay: Inhibition of thrombin (unknown origin) at 25 uM using Boc-Val-Pro-Arg-AMC as substrate preincubated for 15 mins followed by substrate addition and measured for 15 mins by fluorimetric assay; settings: 0.25 h
[9] = target: Genome polyprotein (West Nile virus) (UniProt P06935); assay: Inhibition of West Nile virus NS2B-NS3 protease expressed in Escherichia coli BL21 lambda (DE3) cells at 50 uM using Abz-Gly-Leu-Lys-Arg-Gly-Gly-3-(NO2)Tyr as substrate preincubated for 15 mins followed by substrate addition measured for 15 mins by fluorimetric analysis relative to control
dengue virus type 2 [10] = assay: Antiviral activity against DENV2 infected in human HuH7 cells assessed as reduction in virus titer measured after 48 hrs; format: functional, organism-based; settings: Huh-7, 48 h
[11] = target: Genome polyprotein (West Nile virus) (UniProt P06935); assay: Competitive inhibition of West Nile virus NS2B-NS3 protease expressed in Escherichia coli BL21 lambda (DE3) cells using varying levels of Abz-Gly-Leu-Lys-Arg-Gly-Gly-3-(NO2)Tyr as substrate by Cheng-Prusoff plot analysis
[12] = target: Genome polyprotein (dengue virus type 2) (UniProt P29990); assay: Competitive inhibition of Dengue virus serotype 2 NS2B-NS3 protease expressed in Escherichia coli BL21 lambda (DE3) cells using varying levels of Abz-Nle-Lys-Arg-Arg-Ser-3-(NO2)Tyr as substrate by Cheng-Prusoff plot analysis
[13] = Drug metabolism in pH 7 DENV2proHeLa medium assessed as racemization incubated for 96 hrs at 37 degC RP-HPLC analysis; format: physicochemical; settings: pH 7, 96 h
Genome polyprotein [14] = target: Genome polyprotein (West Nile virus, UniProt P06935); assay: Inhibition of West Nile virus NS2B-NS3 protease expressed in Escherichia coli BL21 lambda (DE3) cells using Abz-Gly-Leu-Lys-Arg-Gly-Gly-3-(NO2)Tyr as substrate preincubated for 15 mins followed by substrate addition measured for 15 mins by fluorimetric analysis
[15] = Cytotoxicity against human HeLa cells assessed as reduction in cell viability measured after 24 hrs by celltiter-blue assay; format: cell-based
[16] = target: Genome polyprotein (dengue virus type 2) (UniProt P29990); assay: Inhibition of Dengue virus serotype 2 NS2B-NS3 protease transfected in human HeLa cells at 12.5 uM measured after 24 hrs by Renilla-luciferase reporter gene assay relative to control; format: cell-based
[17] = Permeability of the compound at 200 uM measured after 5 hrs at pH 7.4 by PAMPA; format: ADME; settings: read-out: permeability
[18] = Drug metabolism in pH13 sodium hydroxide solution assessed as racemization incubated for 96 hrs at room temperature RP-HPLC analysis; format: physicochemical; settings: pH 13, 96 h
[19] = Drug metabolism in pH 9 Tris-HCl buffer assessed as racemization incubated for 96 hrs at 37 degC RP-HPLC analysis; format: physicochemical; settings: pH 9, 96 h
dengue virus type 2 [20] = assay: Antiviral activity against DENV2 infected in human HuH7 cells assessed as reduction in virus titer at 10 uM measured after 48 hrs relative to control; format: functional; settings: Huh-7, 48 h

Chain of Genome polyprotein (West Nile virus, UniProt P06935) (P06935 1371-1501 limits assumed): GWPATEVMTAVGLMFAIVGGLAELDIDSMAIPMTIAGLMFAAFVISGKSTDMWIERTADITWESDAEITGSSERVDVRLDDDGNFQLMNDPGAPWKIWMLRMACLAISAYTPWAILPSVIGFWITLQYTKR
Chain of Genome polyprotein (West Nile virus, UniProt P06935) (P06935 1502-2120 limits assumed): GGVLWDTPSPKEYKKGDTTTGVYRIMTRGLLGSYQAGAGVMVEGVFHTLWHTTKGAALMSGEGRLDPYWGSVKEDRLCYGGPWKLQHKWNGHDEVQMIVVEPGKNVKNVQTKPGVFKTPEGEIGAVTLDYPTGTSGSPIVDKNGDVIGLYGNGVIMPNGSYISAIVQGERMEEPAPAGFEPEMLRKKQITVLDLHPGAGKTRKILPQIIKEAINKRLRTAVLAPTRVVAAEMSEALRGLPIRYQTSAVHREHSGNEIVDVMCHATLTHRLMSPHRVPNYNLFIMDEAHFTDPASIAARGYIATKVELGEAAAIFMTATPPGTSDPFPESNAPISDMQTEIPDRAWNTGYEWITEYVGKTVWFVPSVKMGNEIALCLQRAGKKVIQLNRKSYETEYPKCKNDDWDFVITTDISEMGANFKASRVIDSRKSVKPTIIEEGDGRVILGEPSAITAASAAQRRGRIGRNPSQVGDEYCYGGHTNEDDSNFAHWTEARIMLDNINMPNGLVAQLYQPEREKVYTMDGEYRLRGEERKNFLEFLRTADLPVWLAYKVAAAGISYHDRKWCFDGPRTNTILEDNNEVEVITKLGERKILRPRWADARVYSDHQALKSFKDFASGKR
Chain of Genome polyprotein (West Nile virus) (P06935 whole entry): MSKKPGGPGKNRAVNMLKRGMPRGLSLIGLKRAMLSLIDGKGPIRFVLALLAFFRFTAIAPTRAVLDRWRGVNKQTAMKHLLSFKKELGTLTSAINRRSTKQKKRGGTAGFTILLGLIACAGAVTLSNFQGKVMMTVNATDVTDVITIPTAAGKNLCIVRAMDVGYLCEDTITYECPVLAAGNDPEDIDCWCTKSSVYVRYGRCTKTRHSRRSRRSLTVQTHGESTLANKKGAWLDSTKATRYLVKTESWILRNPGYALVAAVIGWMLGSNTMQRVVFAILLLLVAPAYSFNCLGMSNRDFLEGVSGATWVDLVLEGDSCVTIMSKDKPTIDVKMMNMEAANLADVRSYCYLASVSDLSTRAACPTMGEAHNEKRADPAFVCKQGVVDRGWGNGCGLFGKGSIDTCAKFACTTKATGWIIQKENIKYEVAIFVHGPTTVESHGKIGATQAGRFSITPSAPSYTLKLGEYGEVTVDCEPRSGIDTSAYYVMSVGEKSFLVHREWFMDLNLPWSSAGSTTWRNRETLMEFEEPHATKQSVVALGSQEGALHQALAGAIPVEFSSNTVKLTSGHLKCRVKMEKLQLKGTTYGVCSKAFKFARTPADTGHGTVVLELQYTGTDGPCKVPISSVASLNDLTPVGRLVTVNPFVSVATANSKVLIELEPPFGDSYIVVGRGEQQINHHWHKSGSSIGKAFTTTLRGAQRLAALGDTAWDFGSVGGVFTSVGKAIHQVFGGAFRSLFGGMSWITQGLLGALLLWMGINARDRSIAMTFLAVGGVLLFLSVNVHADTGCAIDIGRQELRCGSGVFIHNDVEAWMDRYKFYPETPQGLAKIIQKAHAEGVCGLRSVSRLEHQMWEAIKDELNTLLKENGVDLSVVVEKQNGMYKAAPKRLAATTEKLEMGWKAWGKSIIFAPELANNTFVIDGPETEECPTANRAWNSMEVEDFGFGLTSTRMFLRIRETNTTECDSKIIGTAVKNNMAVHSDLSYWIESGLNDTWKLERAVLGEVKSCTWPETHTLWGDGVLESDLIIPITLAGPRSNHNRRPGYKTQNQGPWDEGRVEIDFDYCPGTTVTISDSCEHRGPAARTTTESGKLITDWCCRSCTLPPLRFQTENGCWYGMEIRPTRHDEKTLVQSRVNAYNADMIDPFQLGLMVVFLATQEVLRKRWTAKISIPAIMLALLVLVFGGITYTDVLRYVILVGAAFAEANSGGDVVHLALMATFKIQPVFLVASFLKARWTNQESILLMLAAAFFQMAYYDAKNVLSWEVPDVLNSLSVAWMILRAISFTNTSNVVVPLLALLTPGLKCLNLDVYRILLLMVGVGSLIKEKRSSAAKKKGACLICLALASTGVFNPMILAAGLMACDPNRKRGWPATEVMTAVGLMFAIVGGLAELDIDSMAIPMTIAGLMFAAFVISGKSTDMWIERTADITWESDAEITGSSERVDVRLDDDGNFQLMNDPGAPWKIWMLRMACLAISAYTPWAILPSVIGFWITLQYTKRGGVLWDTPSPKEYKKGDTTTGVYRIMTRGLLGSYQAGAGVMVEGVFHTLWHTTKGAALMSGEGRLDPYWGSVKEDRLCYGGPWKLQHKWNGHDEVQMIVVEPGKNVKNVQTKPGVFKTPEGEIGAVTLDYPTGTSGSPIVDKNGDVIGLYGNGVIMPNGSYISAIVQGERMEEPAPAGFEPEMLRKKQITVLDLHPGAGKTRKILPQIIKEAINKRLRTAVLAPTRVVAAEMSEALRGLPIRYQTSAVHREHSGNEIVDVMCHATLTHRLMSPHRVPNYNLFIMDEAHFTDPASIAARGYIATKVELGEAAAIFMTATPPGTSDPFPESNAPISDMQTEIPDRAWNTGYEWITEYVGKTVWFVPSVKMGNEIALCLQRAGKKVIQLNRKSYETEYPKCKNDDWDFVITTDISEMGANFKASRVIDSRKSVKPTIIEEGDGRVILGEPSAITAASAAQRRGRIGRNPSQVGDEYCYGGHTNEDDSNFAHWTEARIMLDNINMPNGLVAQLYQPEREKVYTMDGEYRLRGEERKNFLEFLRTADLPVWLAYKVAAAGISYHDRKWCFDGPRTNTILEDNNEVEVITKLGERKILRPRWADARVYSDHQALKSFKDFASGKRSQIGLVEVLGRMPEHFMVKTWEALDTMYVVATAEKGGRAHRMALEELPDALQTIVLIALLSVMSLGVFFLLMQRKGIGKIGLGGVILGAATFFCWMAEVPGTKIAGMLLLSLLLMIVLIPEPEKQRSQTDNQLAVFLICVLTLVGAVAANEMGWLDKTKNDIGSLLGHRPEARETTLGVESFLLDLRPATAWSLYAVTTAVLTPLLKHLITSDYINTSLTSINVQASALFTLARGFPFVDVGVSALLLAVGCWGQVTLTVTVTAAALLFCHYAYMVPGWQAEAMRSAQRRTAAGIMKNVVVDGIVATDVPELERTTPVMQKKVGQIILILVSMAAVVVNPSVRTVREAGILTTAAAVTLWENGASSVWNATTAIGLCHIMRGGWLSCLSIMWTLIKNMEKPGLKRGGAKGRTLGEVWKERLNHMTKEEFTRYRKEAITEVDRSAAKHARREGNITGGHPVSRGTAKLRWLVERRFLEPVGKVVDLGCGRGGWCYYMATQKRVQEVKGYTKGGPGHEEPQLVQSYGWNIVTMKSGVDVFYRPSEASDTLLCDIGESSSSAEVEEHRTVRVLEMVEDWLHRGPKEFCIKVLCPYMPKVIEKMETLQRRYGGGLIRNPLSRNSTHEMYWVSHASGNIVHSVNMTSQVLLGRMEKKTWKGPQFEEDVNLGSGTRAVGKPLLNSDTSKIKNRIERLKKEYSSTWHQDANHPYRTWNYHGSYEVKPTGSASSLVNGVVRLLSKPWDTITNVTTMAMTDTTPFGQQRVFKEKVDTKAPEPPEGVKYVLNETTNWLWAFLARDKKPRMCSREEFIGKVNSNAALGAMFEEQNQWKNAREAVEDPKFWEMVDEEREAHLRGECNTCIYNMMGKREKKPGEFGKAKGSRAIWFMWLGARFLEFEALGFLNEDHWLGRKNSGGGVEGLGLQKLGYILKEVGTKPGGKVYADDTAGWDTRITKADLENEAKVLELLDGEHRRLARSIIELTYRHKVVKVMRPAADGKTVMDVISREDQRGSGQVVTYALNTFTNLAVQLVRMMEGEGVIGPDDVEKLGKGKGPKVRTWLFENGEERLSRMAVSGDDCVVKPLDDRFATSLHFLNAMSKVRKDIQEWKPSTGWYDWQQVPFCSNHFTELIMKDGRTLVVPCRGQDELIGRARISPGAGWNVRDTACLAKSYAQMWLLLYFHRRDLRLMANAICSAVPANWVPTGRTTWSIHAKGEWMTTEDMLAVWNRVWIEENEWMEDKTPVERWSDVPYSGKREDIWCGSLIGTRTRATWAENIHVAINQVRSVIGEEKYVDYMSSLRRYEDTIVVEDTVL

Compound: CCCCCC(=O)N[C@H](C(=O)NCc1ccc(NC(=N)N)cc1)c1ccc(OCc2ccccc2)cc1.O=C(O)C(F)(F)F
- inhibition [1]: 95.1%
- inhibition (INH) (Trypsin): Not Active
- pEC50 (Genome polyprotein [2]): 6.31
- Drug metabolism [3]: Metabolite_Notdetected
- Activity (Huh-7): Non-Toxic
- Drug uptake [4]: 171 µM
- R% [5]: 12%
- pIC50 (Genome polyprotein [6]): 4.96
- pKi (Genome polyprotein [6]): 5.01
- Drug uptake [7]: 7.5 µM
- Drug metabolism [8]: Metabolite_Detected
- inhibition (INH) (Prothrombin): Not Active
- inhibition [9]: 102%
- pEC50 (dengue virus type 2 [10]): 6.05
- inhibition [11]: Active
- inhibition [12]: Active
- Drug metabolism [13]: Metabolite_Notdetected
- pIC50 (Genome polyprotein [14]): 4.89
- pKi (Genome polyprotein [14]): 4.91 to 4.92
- CC50 at 24 h [15]: > 50 µM
- inhibition [16]: 79.8%
- Papp at 5 h, 200 µM [17]: 1.6 ×10⁻⁶ cm/s
- Drug metabolism [18]: Metabolite_Detected
- Drug metabolism [19]: Metabolite_Notdetected
- inhibition at 10 µM (dengue virus type 2 [20]): 84.5%
